Experiment: Phototoxicity (oral dose, UVA exposure, ear erythema and oedema)
Format: in vivo
Conditions: Swiss Albino mice, UVA 4 hours for 4 consecutive days
Protocol: The stock solutions for different doses were prepared freshly on the day of experimentation. Appropriate concentration of each dose was chosen to give a constant dosage volume of 0.3-0.4 ml/20 g body weight of mouse. The treated mice were exposed to UVA light source immediately after dosing for 4 hours and for 4 consecutive days. The mean light intensity in the UVA chamber was adjusted to 0.9-1.2 mW/cm^2. […] A phototoxic dose is one which causes ear erythema and oeadema.

C[C@@H]1CN(c2c(F)c(N)c3c(=O)c(C(=O)O)cn(C4CC4)c3c2F)C[C@H](C)N1 [sparfloxacin]
phototoxic dose: 25 mg/kg

— patent US6878713B2, “Generation triple-targeting, chiral, broad-spectrum antimicrobial 7-substituted piperidino-quinolone carboxylic acid derivatives, their preparation, compositions and use as medicaments” (Wockhardt Limited, priority 2001, dated 2005)
